Source: paper PMC8151276, “An Integrated Approach toward NanoBRET Tracers for Analysis of GPCR Ligand Engagement” (Molecules, 2021)

Target: T1, NPFFR1 (Homo sapiens, UniProt Q9GZQ6)
T1 construct: purchased Promega (in-house HiBiT-GPCR construct library, NanoBRET)
Test: NanoBRET screen HiBiT-NPFFR1 in HEK293
Assay type: binding
Experimental: Each tracer candidate was screened across the entire library of HiBiT-GPCR constructs using NanoBRET as the detection modality. As depicted in Figure 4A, the specificity of interactions was evaluated through decrease in BRET due to competitive displacement of a bound tracer by excess parental compound. Each tracer was analyzed for binding to each HiBiT-GPCR fusion in the absence and in the presence of competing parental compound. Briefly, HEK293 cells were transfected with HiBiT-GPCR constructs diluted into promoterless DNA to reduce expression and maximize translocation to the cell surface. Each tracer candidate was then screened at concentrations of 1 μM and 0.1 μM across cells expressing these fusions. Cells were treated for 1.5 h with tracer either alone or in the presence of 20 μM competing parental compound (i.e., control). BRET was measured upon addition of purified LgBiT and subsequent complementation with HiBiT genetically fused to a GPCR. The specificity of interactions was assessed through a decrease in BRET signal due to competitive displacement of the bound tracer. To further gauge the robustness of these interactions, the fold response over the control (i.e., BRETtracer/BRETcontrol) was calculated. We chose a 1.5-fold response, which translates to ≥7-fold signal over noise as the minimal threshold required to score an interaction as positive.
HiBiT-GPCR DNA constructs were diluted in 10 mM Tris pH 8 to a final concentration of 0.01 μg/μL, arrayed in 96-well plates and stored at −20 °C. For transfection, HEK293 cells were suspended in Opti-MEM (without phenol red) supplemented with 2% fetal bovine serum (Seradigm) and 100 units/mL penicillin–streptomycin (Gibco) at a final concentration of 220,000 cells/mL and dispensed into white 96-well plates at 90 μL/well. Subsequent transfections and screens were carried using an Agilent Bravo Automated Liquid Handling Platform. First, the 96-well HiBiT DNA arrays were diluted 25-fold in Opti-MEM (without serum or phenol red) to a final concentration of 0.0004 μg/μL and 20 μL of the diluted DNAs were transferred into new 96-well plates. Next, promoterless carrier DNA (1 μg/μL) was diluted 25-fold (0.04 μg/μL) and then dispensed into the diluted arrays at 20 μL/well. Following brief mixing, Viafect transfection reagent (Promega) diluted 16-fold into Opti-MEM was dispensed into the plates at 40 μL/well. After mixing by pipetting, plates were incubated for 10 min on the pipetting station deck. The DNA-transfection reagent complexes were then added to plates containing cells. To facilitate the screen, 10 μL of DNA-transfection reagent complexes were added in duplicates to the top 4 and bottom 4 rows, resulting in two identical 48-well arrays per plate. Plates with transfected cells were incubated for 18–20 h at 37 °C/5% CO2. A screen of each tracer across the entire library using two different concentrations requires duplicate plates of transfected cells. Depending on the number of tracers being screened, transfections can be scaled up using the same ratios. The next day, for each tracer, four 20× screening solutions in tracer dilution buffer (Promega) were prepared: two duplicates at final concentration of 20 μM and two duplicates at a final concentration of 2 μM. […] The four resulting solutions were diluted 4-fold in Opti-MEM without serum or phenol red to generate 5× solutions (5 µM and 0.5 µM tracer +/− 100 μM competing compound). To screen the library, a BioTek MultiFlo FX liquid dispenser was used to dispense 22.5 µL of tracer solution to the top 4 rows and 22.5 µL tracer + competing compound solution to the 4 bottom rows. Plates were briefly mixed on an orbital shaker and incubated for 1.5 h at room temperature. […] Plates were briefly mixed on an orbital shaker and incubated for 15 min to allow complementation.

T1 sequence (Q9GZQ6 whole entry): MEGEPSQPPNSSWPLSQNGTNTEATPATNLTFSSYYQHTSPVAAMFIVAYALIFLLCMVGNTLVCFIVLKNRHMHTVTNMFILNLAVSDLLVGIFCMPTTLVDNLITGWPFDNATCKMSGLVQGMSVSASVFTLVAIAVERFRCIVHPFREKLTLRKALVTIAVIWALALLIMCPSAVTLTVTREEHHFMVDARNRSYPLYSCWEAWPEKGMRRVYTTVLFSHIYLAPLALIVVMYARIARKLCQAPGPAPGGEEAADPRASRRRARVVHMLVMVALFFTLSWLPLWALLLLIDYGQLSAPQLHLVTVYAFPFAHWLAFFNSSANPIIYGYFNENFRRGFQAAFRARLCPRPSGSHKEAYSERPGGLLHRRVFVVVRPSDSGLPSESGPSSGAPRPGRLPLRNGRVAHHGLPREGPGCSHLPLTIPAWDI

Compound	NanoBRET Fold Response (NPFFR1, tracer 0.1μM)	NanoBRET Fold Response (NPFFR1, tracer 1μM)	further results
Cc1nc2n(c(=O)c1CCN1CCC(c3noc4cc(F)ccc34)CC1)CCCC2OC(=O)NCCOCCOCCOCCOCCNC(=O)CCc1ccc2n1[B-](F)(F)[N+]1=C(c3ccc[nH]3)C=CC1=C2 (stereo not drawn) [Risperidone-2-NB590]	0.97	0.95	
CCOC(=O)c1cc(C#N)c(N2CCC(C(=O)NS(=O)(=O)Cc3ccccc3/C=C/C(=O)NCCNC(=O)CCc3ccc4n3[B-](F)(F)[N+]3=C(c5ccc[nH]5)C=CC3=C4)CC2)nc1C [AZD1283-1-NB590]			NanoBRET Fold Response (NPFFR1, 0.1μM): 1.02; NanoBRET Fold Response (NPFFR1, 1μM): 0.99
Cc1cc2c(s1)Nc1ccccc1N=C2N1CCN(CCCNC(=O)CCOCCOCCOCCOCCNC(=O)CCc2ccc3n2[B-](F)(F)[N+]2=C(c4ccc[nH]4)C=CC2=C3)CC1 [Olanzapine-a-2-NB590]	0.96		
COc1ccccc1N1CCN(CCCCN2C(=O)c3ccc(CNC(=O)CCOCCNC(=O)c4ccc(CNC(=O)CCc5ccc6n5[B-](F)(F)[N+]5=C(c7ccc[nH]7)C=CC5=C6)cc4)cc3C2=O)CC1 [NAN-190-3-NB590]	1.06	0.96	
CC(C)N(CC[C@H](c1ccccc1)c1cc(CCNC(=O)CCOCCOCCOCCOCCNC(=O)CCc2ccc3n2[B-](F)(F)[N+]2=C(c4ccc[nH]4)C=CC2=C3)ccc1O)C(C)C [Tolterodine-2-NB590]	1.19		
CN(C)CCC=C1c2ccccc2CCc2ccc(C(=O)NCCNC(=O)CCOCCOCCOCCOCCNC(=O)CCc3ccc4n3[B-](F)(F)[N+]3=C(c5ccc[nH]5)C=CC3=C4)cc21 [Amitriptyline-b-2-NB590]			NanoBRET Fold Response (tracer at 0.1μM): 0.98
O=C(CCOCCOCCOCCOCCNC(=O)CCc1ccc2n1[B-](F)(F)[N+]1=C(c3ccc[nH]3)C=CC1=C2)NCCCN1CCN(C2=Nc3ccccc3Oc3ccc(Cl)cc32)CC1 [Loxapine-a-2-NB590]	0.98	1.00	
O=C(CCc1ccc2n1[B-](F)(F)[N+]1=C(c3ccc[nH]3)C=CC1=C2)NCCOCCOCCNC(=O)OCCOCCN1CCN(C2=Nc3ccccc3Sc3ccccc32)CC1 [Quetiapine-a-2-NB590]	0.99	1.00	
COc1ccccc1N1CCN(CCCCN2C(=O)c3ccc(CNC(=O)CCOCCOCCOCCOCCNC(=O)CCc4ccc5n4[B-](F)(F)[N+]4=C(c6ccc[nH]6)C=CC4=C5)cc3C2=O)CC1 [NAN-190-2-NB590]	0.95	1.02	
CN1CCN(C2=Nc3cc(Cl)ccc3N(CC(=O)NCCOCCOCCOCCOCCNC(=O)CCc3ccc4n3[B-](F)(F)[N+]3=C(c5ccc[nH]5)C=CC3=C4)c3ccccc32)CC1 [Clozapine-c-2-NB590]			NanoBRET Fold Response (NPFFR1, 0.1μM tracer): 1.02; NanoBRET Fold Response (NPFFR1, 1μM tracer): 1.00
COc1ccc2[nH]c(-c3ccc(CNC(=O)CCOCCOCCOCCOCCNC(=O)CCc4ccc5n4[B-](F)(F)[N+]4=C(c6ccc[nH]6)C=CC4=C5)cc3)c(CCNC(C)=O)c2n1 [AzomelatoninICO9-2-NB590]			NanoBRET Fold Response (1μM tracer): 1.01
O=C(CCOCCOCCOCCOCCNC(=O)CCc1ccc2n1[B-](F)(F)[N+]1=C(c3ccc[nH]3)C=CC1=C2)NCCCN1CCN(C2=Nc3cc(Cl)ccc3Nc3ccccc32)CC1 [Clozapine-a-2-NB590]			NanoBRET Fold Response (NPFFR1, 1μM tracer): 0.98
CCCn1c(=O)c2[nH]c(-c3ccc(OCC(=O)NCCNC(=O)CCOCCNC(=O)c4ccc(CNC(=O)CCc5ccc6n5[B-](F)(F)[N+]5=C(c7ccc[nH]7)C=CC5=C6)cc4)cc3)nc2n(CCC)c1=O [XAC-3-NB590]	0.99	1.01	
O=C(CCc1ccc2n1[B-](F)(F)[N+]1=C(c3ccc[nH]3)C=CC1=C2)NCc1ccc(C(=O)NCCOCCOCCNCC(O)COc2cccc3ccccc23)cc1 (stereo not drawn) [Propranolol-3-NB590]			NanoBRET Fold Response (NPFFR1, 0.1μM): 1.01; NanoBRET Fold Response (NPFFR1, 1μM): 0.99
O=C(CCc1ccc2n1[B-](F)(F)[N+]1=C(c3ccc[nH]3)C=CC1=C2)NCc1ccc(C(=O)NCCOCCC(=O)N[C@@H]2CC[C@@]3(O)[C@H]4Cc5ccc(O)c6c5[C@@]3(CCN4CC3CC3)[C@H]2O6)cc1 [Naltrexone-3-NB590]	0.94	1.15	
N#CN=C(NCCCOc1cccc(CN2CCCCC2)c1)NCCNC(=O)CCOCCOCCOCCOCCNC(=O)CCc1ccc2n1[B-](F)(F)[N+]1=C(c3ccc[nH]3)C=CC1=C2 [Aminopotentidine-2-NB590]	0.96	1.02	
COc1ccc2c(n1)c(CCNC(C)=O)cn2CCNC(=O)CCc1ccc2n1[B-](F)(F)[N+]1=C(c3ccc[nH]3)C=CC1=C2 [Azamelatonin-1-NB590]			NanoBRET Fold Response (0.1μM tracer): 0.99; NanoBRET Fold Response (1μM tracer): 0.91
CC(C)N(CC[C@H](c1ccccc1)c1cc(CCNC(=O)c2ccc(CNC(=O)CCc3ccc4n3[B-](F)(F)[N+]3=C(c5ccc[nH]5)C=CC3=C4)cc2)ccc1O)C(C)C [Tolterodine-BZ-NB590]	0.96	1.02	
CN1CCN(C2=Nc3cc(Cl)ccc3Nc3ccc(CNC(=O)CCOCCOCCOCCOCCNC(=O)CCc4ccc5n4[B-](F)(F)[N+]4=C(c6ccc[nH]6)C=CC4=C5)cc32)CC1 [Clozapine-b-2-NB590]			NanoBRET Fold Response (NPFFR1, 0.1μM tracer): 1.00; NanoBRET Fold Response (NPFFR1, 1μM tracer): 1.02
